From paper PMC12419922, “Myristoylated Cathelicidin-DM Fused With ANG1-7: A Novel Self-Assembling Antimicrobial Peptide for the Treatment and Mechanism of Diabetic Infected Wounds” (Journal of Diabetes Research, 2025)
Like-named read-outs stand apart in the source and are kept apart here. Where no end group is shown, it is not given here. The star is where a group is joined. Myristoyl = CCCCCCCCCCCCCC(=O)*

Columns and labels:
S. aureus biofilms = experiment: Antibiofilm activity, crystal violet staining and colony counting; type: cell-based, Staphylococcus aureus; details: different concentrations, 37°C, 24 h, crystal violet OD 595 nm and viable count
Procedure: (§1) E. coli (ATCC 25922) and S. aureus (ATCC 25923) were cultured overnight in MHB medium at 37°C. The bacterial suspension was diluted to 100 times and added to a 12-well plate (500 μL/well). Each peptide with a different concentration was added to the corresponding well plate and incubated at 37°C for 24 h. After incubation, 100 μL of culture supernatant was discarded. The biofilm was fixed with 100 μL of 100% methanol for 15 min, then air-dried, then dyed with 0.1% crystal violet (CV) for 30 mins, and washed with distilled water three times. After adding 200 μL of 95% ethanol, the inhibition rate of the biofilm was calculated by measuring the OD value at 595 nm with Infinite M200 PRO, Switzerland. After ultrasonic treatment, the biofilm was fully dispersed into single cells, and the cell suspension was diluted to a suitable concentration for colony counting. All experiments were repeated three times.
(§2) The formation of bacterial biofilms in the wounds of DFU patients is the main cause of bacterial resistance. By measuring the antibiofilm ability, the inhibitory and clearing effects of drugs on biofilms can be assessed. In the case of preventing biofilm formation, E. coli and S. aureus were cultured in LB nutrient medium with different concentrations of the novel AMP MYR-DM-ANG1-7 in 24-well plates at 37°C and incubate for 24 h. […]

[1] = test system: mouse red blood cell suspension; details: 37°C, 60 min, OD 590 nm, 0.1% Triton X-100 positive control
Procedure: In order to evaluate the hemolytic activity of self-assembled peptides on normal mammalian cells, fresh blood of normal mice was collected, and heparin sodium was anticoagulated and stored. After centrifugation at 4°C and 3000 rpm for 10 min, the precipitate was collected, washed, and centrifuged with normal saline for three times and then resuspended at 10% (v/v). We mix 100 μL of different concentrations of drugs with 100 μL of mouse red blood cell suspension, incubate in a constant temperature oscillation incubator at 37°C for 60 min, then take out and centrifuge according to the above setting, absorb 100 μL of supernatant, put it in a 96-well cell culture plate, and measure the OD value at 590 nm by M200 full-band enzyme-labeled instrument (Infinite M200 Pro, Switzerland). Then, 100 μL of 0.1% Triton X-100 solution was used as a positive control and PBS as a negative control. According to the formula, hemolysis (%) = (experimental group OD value − negative control OD value)/(positive control OD value − negative control OD value) × 100%.

HUVECs [2] = experiment: Transwell migration assay; type: cell-based, human; details: HUVECs in HG + LPS; p < 0.01
Procedure: HUVECs (1 × 10^4 cells/well) were incubated in the upper chamber of an 8-μm pore size (Corning, New York) and placed into a 24-well plate for 16 h at 37°C with 5% CO2. Cells adhering to the top surface of the Transwell membrane were carefully removed using a cotton swab. Cells that had migrated to the bottom of the chamber were fixed with 4% paraformaldehyde for 30 min and stained with 0.1% CV for 20 min. Finally, the chambers were placed on slides and imaged using an inverted fluorescence microscope (ThermoFish EVOS, United States). The number of cells in five random fields of each chamber was counted to determine migration ability.

HUVECs [3] = experiment: Tube formation (angiogenesis) on Matrigel; type: cell-based, human; details: 9 h, n = 3
Procedure: The formation of vascular structure was observed by matrix glue experiment, and the angiogenesis ability was evaluated in Matrigel stent (Corning, New York). After treatment in each group, 300 μL (2 × 10^5 cells/mL) HUVECs were digested and inoculated into a 24-well plate containing Matrigel scaffold. After 9 h, the formation image of the tube was photographed.

HUVECs [4] = experiment: Mitochondrial membrane potential, JC-1; type: cell-based, human; details: HG + LPS, 20 μg/mL, p < 0.0001
Procedure: JC-1 is a widely used and ideal fluorescent probe for detecting MMP. When the MMP is high, JC-1 accumulates in the matrix of the mitochondria, forming J-aggregates that emit red fluorescence. When the MMP is low, JC-1 cannot accumulate in the mitochondrial matrix, remaining as a monomer that emits green fluorescence. HUVECs were cultured in well plates containing DMEM at a density of 1 × 10^6 cells/well. Following the indicated treatments, the slides were washed three times with PBS and the cells were incubated with 1 mg/l JC-1 at 37°C for 30 min in the incubator, washed briefly three times with PBS. The fluorescence was measured over the entire field of vision using a fluorescent microscope connected to an inverted fluorescence microscope (ThermoFish EVOS, United States). The experiment was repeated three times.

HUVECs [5] = experiment: NO secretion, Griess reaction; type: cell-based, human; details: HG + LPS (HG + LPS 0.5 times the original level), n = 3
Procedure: NO levels were determined using the Griess reaction. Briefly, 100 μL of cell culture supernatant was mixed with an equal volume of Griess reagent and incubated at room temperature in the dark for 30 min. The absorbance of the reaction mixture was measured at 540 nm using a microplate reader. Sodium nitrite (NaNO2) was used as a standard to generate a calibration curve, and the NO concentration in the samples was calculated accordingly. All experiments were independently performed in triplicate to ensure data reliability and reproducibility.

[6] = TEM of self-assembled structures; type: physicochemical; details: 32 μg/mL, deionized water, 1.5% PTA negative stain
Procedure: The self-assembly morphology of peptide amphiphiles in water was observed using TEM. Each sample was mounted on a 300-mesh copper-coated carbon grid and then negatively stained with a 1.5% phosphotungstic acid solution (1.5% PTA). Before imaging, all samples were air-dried for approximately 10 min. Finally, the samples were characterized under an acceleration voltage of 80 kV.

S. aureus (ATCC 25923) = experiment: MIC and growth inhibition, broth microdilution; type: cell-based, Staphylococcus aureus
Procedure: (§3) The minimum inhibitory concentrations (MICs) of DM and MYR-DM-ANG1-7 were determined using the broth microdilution method. E. coli (ATCC 25922) and S. aureus (ATCC 25923) were cultured overnight in Mueller–Hinton broth (MHB) at 37°C. The cultures were diluted to 2 × 10^5 CFU/mL. The peptides were serially diluted in 10 mM phosphate-buffered solution (PBS) and added to a 96-well plate. The bacterial suspensions were mixed with an equal volume of peptide solution and incubated at 37°C for 18 h. Bacterial growth inhibition was determined by measuring the absorbance at 600 nm using a M200 multiwavelength microplate reader (Infinite M200 PRO, Switzerland). Subsequently, bacterial suspensions were treated with 1 × MIC, 2 × MIC, 3 × MIC, and 4 × MIC concentrations of the AMPs and sampled at 0, 3, 6, 12, 18, and 24 h. The absorbance was measured at 600 nm. The experiment was repeated three times.

E. coli biofilms = experiment: Antibiofilm activity, crystal violet staining and colony counting; type: cell-based, Escherichia coli; details: different concentrations, 37°C, 24 h, crystal violet OD 595 nm and viable count
Procedure: as §1, §2

HUVECs [7] = experiment: Scratch wound healing assay; type: cell-based, human; details: HG + LPS, 20 μg/mL, n = 3
Procedure: In a 6-well plate, HUVECs (2 × 10^5 cells/well) were seeded. The cells were starved in serum-free medium for 12 h, and then, a scratch was made vertically using a 200-μL pipette tip. […]

E. coli (ATCC 25922) = experiment: MIC and growth inhibition, broth microdilution; type: cell-based, Escherichia coli
Procedure: as §3

[8] = 4 × MIC (128 μg/mL), OD 600 nm at 0-24 h, repeated three times

Myristoyl-SSRRKPCKGWLCKLKLRGGYTLIGSATNLNRPTYVRAGGGDRVYIHP (cysteines drawn unpaired) [MYR-DM-ANG1-7]
formation of S. aureus biofilms (S. aureus biofilms): effectively inhibit
hemolysis rate of red blood cells ([1]; 128 μg/mL): 6.01%
hemolysis rate of red blood cells ([1]; 8-64 μg/mL): less than 5%
number of cells passing through the chamber (Transwell) (HUVECs [2]): increased
main connections of formed blood vessels (HUVECs [3]; HG + LPS (HG + LPS group 0.3 times)): 1.9 times
length of formed blood vessels (HUVECs [3]; HG + LPS (HG + LPS group 0.4 times)): 1.7 times
mitochondrial membrane potential (JC-1) (HUVECs [4]): increase
NO secretion in cell supernatant, increases to (HUVECs [5]): 1.63 times
particle size of micelles [6]: 22.38 ± 1.63 nm
growth of S. aureus (inhibition curve) (S. aureus (ATCC 25923); [8]): completely inhibit
Minimum inhibitory concentration (S. aureus (ATCC 25923); S. aureus ATCC 25923, broth microdilution, MHB, 2 × 10^5 CFU/mL, 37°C, 18 h, absorbance 600 nm): 16 µg/mL
formation of E. coli biofilms (E. coli biofilms): effectively inhibit
wound healing rate (scratch assay) (HUVECs [7]; after 12 h): 61.6%
healing area (scratch assay) (HUVECs [7]; at 48 h): 100%
growth of E. coli (inhibition curve) (E. coli (ATCC 25922); [8]): completely inhibit
Minimum inhibitory concentration (E. coli (ATCC 25922); E. coli ATCC 25922, broth microdilution, MHB, 2 × 10^5 CFU/mL, 37°C, 18 h, absorbance 600 nm): 12 µg/mL
increase of antibacterial efficacy compared to DM (E. coli (ATCC 25922); from MIC values against S. aureus and E. coli): 1.3 fold
